In patent US20110028455A1, “Indole-substituted 3-cyanopyridines As Kinase Inhibitors” (Wyeth LLC, priority 2007, published 2011):
Like-named read-outs stand apart in the source and are kept apart here.

Tests used:
[1] = Metabolic stability in rat liver microsomes; type: in vitro ADME; settings: 30 minutes incubation, remaining compound by HPLC
Description: In order to probe the metabolic stability of the compounds of the invention, a series of compounds were selected for stability testing in rat liver microsomes. A DMSO solution of each compound was incubated for 30 minutes in the presence of rat liver homogenate. The percentage of remaining compound was assessed by HPLC. An approximate half life was calculated from the percentage of remaining compound. Table II, below, illustrates a comparison of the in vitro microsomal half life of the selected compounds verses a series of related compounds lacking the C-6 alkyl group. […] It is generally accepted in the industry that improved in vitro metabolic stability frequently translates into improved in vivo metabolic stability. Improved metabolic stability may translate to increased in vivo exposure levels.

[2] = molecular target: T1, human PKCθ full length enzyme (Homo sapiens, UniProt Q04759); assay: PKCθ IMAP Assay; type: biochemical; settings: PKCθ 1 nM; ATP 6 μM; peptide 100 nM; DMSO 5%; 25 minutes at room temperature; FP readout; read-out: PKC-Theta Mean IC50
T1 construct: human PKCθ full length enzyme (Panvera Cat# P2996); purchased Panvera P2996
T1 sequence (Q04759 whole entry): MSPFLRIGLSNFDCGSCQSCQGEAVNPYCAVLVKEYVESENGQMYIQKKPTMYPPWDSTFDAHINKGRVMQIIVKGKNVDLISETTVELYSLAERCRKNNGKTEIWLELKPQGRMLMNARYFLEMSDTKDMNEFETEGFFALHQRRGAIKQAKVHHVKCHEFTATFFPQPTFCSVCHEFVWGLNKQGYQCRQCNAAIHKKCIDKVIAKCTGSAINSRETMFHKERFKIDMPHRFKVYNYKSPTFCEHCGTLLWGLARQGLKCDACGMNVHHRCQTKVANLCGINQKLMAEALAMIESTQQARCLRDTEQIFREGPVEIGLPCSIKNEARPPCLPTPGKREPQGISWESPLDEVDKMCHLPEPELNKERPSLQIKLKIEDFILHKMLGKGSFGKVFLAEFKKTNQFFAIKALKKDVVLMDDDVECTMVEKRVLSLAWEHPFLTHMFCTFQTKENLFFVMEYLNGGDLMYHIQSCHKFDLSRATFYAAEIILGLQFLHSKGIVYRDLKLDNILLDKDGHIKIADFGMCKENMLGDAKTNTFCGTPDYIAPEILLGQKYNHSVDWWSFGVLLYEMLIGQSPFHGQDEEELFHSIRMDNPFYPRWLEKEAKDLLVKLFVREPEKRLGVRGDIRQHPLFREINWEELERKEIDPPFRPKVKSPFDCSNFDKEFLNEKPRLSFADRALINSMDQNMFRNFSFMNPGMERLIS
Description: The materials used include the following: human PKCθ full length enzyme (Panvera Cat# P2996); substrate peptide: 5FAM-RFARKGSLRQKNV-OH (Molecular Devices, RP7032); ATP (Sigma Cat # A2383); DTT (Pierce, 20291); 5× kinase reaction buffer (Molecular Devices, R7209); 5× binding buffer A (Molecular Devices, R7282), 5× binding buffer B (Molecular Devices, R7209); IMAP Beads (Molecular Devices, R7284); and 384-well plates (Corning Costar, 3710).
The reaction buffer was prepared by diluting the 5× stock reaction buffer and adding DTT to obtain a concentration of 3.0 mM. The binding buffer was prepared by diluting the 5× binding buffer A. A master mix solution was prepared using a 90% dilution of the reaction buffer containing 2×ATP (12 uM) and 2× peptide (200 nm). Compounds were diluted in DMSO to 20× of the maximum concentration for the IC50 measurement. 27 μl of the master mix solution for each IC50 curve was added to the first column in a 384-well plate and 3 μl of 20× compound in DMSO was added to each well.
The final concentration of compound was 2× and 10% DMSO. DMSO was added to the rest of the master mix to increase the concentration to 10%. 10 μl of the master mix containing 10% DMSO was added to the rest of the wells on the plate except the 2nd column. 20 μl was transferred from the first column to the 2nd column. The compounds were serially diluted in 2:1 ratio starting from the 2nd column. A 2×(2 nM) PKCθ solution was made in the reaction buffer. 10 μl of the PKCθ solution was added to every well to achieve these final concentrations: PKCθ-1 nM; ATP-6 μM; peptide-100 nM; DMSO-5%. Samples were incubated for 25 minutes at room temperature. The binding reagent was prepared by diluting the beads in 1× binding buffer to 800:1. 50 μl of the binding reagent was added to every well and incubated for 20 minutes. FP was measured using Envision2100 (PerkinElmer Life Sciences). Wells with no ATP and wells with no enzyme were used as controls.

[3] = 6-Me compounds of the invention, read-out: Rat Microsome Stability of 6-Me cyanopyridine Compounds (approximate half life)
[4] = related compounds lacking the C-6 alkyl group, read-out: Rat Microsome Stability of 6-H cyanopyridine Compounds (approximate half life)

Cc1ncc(C#N)c(Nc2ccc3[nH]ccc3c2C)c1-c1ccc(OCCN2CCOCC2)cc1 [Example 30, 6-methyl-4-[(4-methyl-1H-indol-5-yl)amino]-5-[4-(2-morpholin-4-ylethoxy)phenyl]nicotinonitrile]
half-life [1, 3]: 17 min
IC50 [2]: 124 nM

Cc1c(Nc2c(C#N)cncc2-c2ccc(OCCNCc3ccccc3)cc2)ccc2[nH]ccc12
half-life [1, 4]: 6 min

Cc1c(Nc2c(C#N)cncc2-c2ccc(OCCN3CCN(C)CC3)cc2)ccc2[nH]ccc12
half-life [1, 4]: 14 min

Cc1ncc(C#N)c(Nc2ccc3[nH]ccc3c2C)c1-c1ccc(OCCNC2CCN(C)CC2)cc1 [Example 22, 6-methyl-4-[(4-methyl-1H-indol-5-yl)amino]-5-(4-{2-[(1-methylpiperidin-4-yl)amino]ethoxy}phenyl)nicotinonitrile]
half-life [1, 3]: > 30 min
IC50 [2]: 9 nM

Cc1c(Nc2c(C#N)cncc2-c2ccc(OCCN3CCC(N4CCOCC4)CC3)cc2)ccc2[nH]ccc12
half-life [1, 4]: 10 min

Cc1ncc(C#N)c(Nc2ccc3[nH]ccc3c2C)c1-c1ccc(OCCN2CCN(CCO)CC2)cc1 [Example 35, 5-(4-{2-[4-(2-hydroxyethyl)piperazin-1-yl]ethoxy}phenyl)-6-methyl-4-[(4-methyl-1H-indol-5-yl)amino]nicotinonitrile]
half-life [1, 3]: > 30 min
IC50 [2]: 44 nM

Cc1ncc(C#N)c(Nc2ccc3[nH]ccc3c2C)c1-c1ccc(OCCCl)cc1 [Example 12, 5-[4-(2-chloroethoxy)phenyl]-6-methyl-4-[(4-methyl-1H-indol-5-yl)amino]nicotinonitrile]
melting point: 200 to 201 °C
IC50 [2]: 30 nM

Cc1c(Nc2c(C#N)cncc2-c2ccc(OCCN3CCCC3)cc2)ccc2[nH]ccc12
half-life [1, 4]: 21 min

Cc1ncc(C#N)c(Nc2ccc3[nH]ccc3c2C)c1-c1cc2cc(CN3CCN(C)CC3)ccc2o1 [Example 16, 6-methyl-4-[(4-methyl-1H-indol-5-yl)amino]-5-{5-[(4-methylpiperazin-1-yl)methyl]-1-benzofuran-2-yl}nicotinonitrile]
melting point: 218 to 220 °C
IC50 [2]: 2.7 nM

CCN1CCN(CCOc2ccc(-c3cncc(C#N)c3Nc3ccc4[nH]ccc4c3C)cc2)CC1
half-life [1, 4]: 8 min

Cc1c(Nc2c(C#N)cncc2-c2ccc(OCCN3CCN(CCO)CC3)cc2)ccc2[nH]ccc12
half-life [1, 4]: 11 min

Cc1c(Nc2c(C#N)cncc2-c2ccc(OCCN3CCN(CCN(C)C)CC3)cc2)ccc2[nH]ccc12
half-life [1, 4]: > 30 min

Cc1c(Nc2c(C#N)cncc2-c2ccc(OCCN3CCC(N4CCCC4)CC3)cc2)ccc2[nH]ccc12
half-life [1, 4]: > 30 min

COc1ccc(-c2c(C)ncc(C#N)c2Nc2ccc3[nH]ccc3c2C)cc1OC [Example 9, 5-(3,4-dimethoxyphenyl)-6-methyl-4-[(4-methyl-1H-indol-5-yl)amino]nicotinonitrile]
melting point: 202 to 203 °C
IC50 [2]: 67 nM

Cc1ncc(C#N)c(Nc2ccc3[nH]ccc3c2C)c1-c1ccc(OCCN2CCC(c3ccccc3)CC2)cc1 [Example 29, 6-methyl-4-[(4-methyl-1H-indol-5-yl)amino]-5-{4-[2-(4-phenylpiperidin-1-yl)ethoxy]phenyl}nicotinonitrile]
half-life [1, 3]: 20 min
IC50 [2]: 272 nM

Cc1c(Nc2c(C#N)cncc2-c2ccc(OCCNCc3ccccn3)cc2)ccc2[nH]ccc12
half-life [1, 4]: 3 min

Cc1c(Nc2c(C#N)cncc2-c2ccc(OCCNCC3CCN(C)CC3)cc2)ccc2[nH]ccc12
half-life [1, 4]: > 30 min

Cc1ncc(C#N)c(Nc2ccc3[nH]ccc3c2C)c1-c1ccc(OCCNCCCn2ccnc2)cc1 [Example 38, 5-[4-(2-{[3-(1H-imidazol-1-yl)propyl]amino}ethoxy)phenyl]-6-methyl-4-[(4-methyl-1H-indol-5-yl)amino]nicotinonitrile]
half-life [1, 3]: > 30 min
IC50 [2]: 14 nM

Cc1c(Nc2c(C#N)cncc2-c2ccc(OCCN3CCC(c4ccccc4)CC3)cc2)ccc2[nH]ccc12
half-life [1, 4]: 5 min

Cc1ncc(C#N)c(Nc2ccc3[nH]ccc3c2C)c1-c1ccc(OCCN2CCN(CCN(C)C)CC2)cc1 [Example 36, 5-[4-(2-{4-[2-(dimethylamino)ethyl]piperazin-1-yl}ethoxy)phenyl]-6-methyl-4-[(4-methyl-1H-indol-5-yl)amino]nicotinonitrile]
half-life [1, 3]: > 30 min
IC50 [2]: 33 nM

Cc1c(Nc2c(C#N)cncc2-c2ccc(OCCN3CCOCC3)cc2)ccc2[nH]ccc12
half-life [1, 4]: 8 min

Cc1ncc(C#N)c(Nc2ccc3[nH]ccc3c2C)c1-c1ccc(OCCNCc2ccccc2)cc1 [Example 39, 5-{4-[2-(benzylamino)ethoxy]phenyl}-6-methyl-4-[(4-methyl-1H-indol-5-yl)amino]nicotinonitrile]
half-life [1, 3]: 14 min
IC50 [2]: 73 nM

Cc1ncc(C#N)c(Nc2cccc3[nH]ccc23)c1-c1cc2ccccc2o1 [Example 10, 5-(1-benzofuran-2-yl)-4-(1H-indol-4-ylamino)-6-methylnicotinonitrile]
melting point: 192 to 193 °C
IC50 [2]: 113 nM

CCOCCNCCOc1ccc(-c2cncc(C#N)c2Nc2ccc3[nH]ccc3c2C)cc1
half-life [1, 4]: 7 min

5-{4-[2-(4-cyclopentylpiperazin-1-yl)ethoxy]phenyl}-6-methyl-4-[(4-methyl-1H-indol-5-yl)amino]nicotinonitrile [Example 37]
Rat Microsome Stability of 6-Me cyanopyridine Compounds (approximate half life) ([1]; 6-Me compounds of the invention): >30 min
IC50 [2]: 30 nM

Cc1ncc(C#N)c(Nc2ccc3[nH]ccc3c2C)c1-c1cc2cc(C=O)ccc2o1 [Example 15, 5-(5-formyl-1-benzofuran-2-yl)-6-methyl-4-[(4-methyl-1H-indol-5-yl)amino]nicotinonitrile]
melting point: 168 to 169 °C
IC50 [2]: 12 nM

Cc1ncc(C#N)c(Nc2cccc3[nH]ccc23)c1-c1ccc(OCCCl)cc1 [Example 13, 5-[4-(2-chloroethoxy)phenyl]-4-(1H-indol-4-ylamino)-6-methylnicotinonitrile]
melting point: 185 to 186 °C
IC50 [2]: 150 nM

Cc1ncc(C#N)c(Nc2ccc3[nH]ccc3c2C)c1-c1ccc(OCCN2CCCC2)cc1 [Example 20, 6-methyl-4-[(4-methyl-1H-indol-5-yl)amino]-5-[4-(2-pyrrolidin-1-ylethoxy)phenyl]nicotinonitrile]
half-life [1, 3]: > 30 min
IC50 [2]: 25 nM

Cc1c(Nc2c(C#N)cncc2-c2ccc(OCCNC3CCN(C)CC3)cc2)ccc2[nH]ccc12
half-life [1, 4]: > 30 min

Cc1ncc(C#N)c(Nc2ccc3[nH]ccc3c2C)c1-c1ccc(OCCNCc2ccccn2)cc1 [Example 40, 6-methyl-4-[(4-methyl-1H-indol-5-yl)amino]-5-(4-{2-[(pyridin-2-ylmethyl)amino]ethoxy}phenyl)nicotinonitrile]
half-life [1, 3]: 13 min
IC50 [2]: 29 nM

CCOCCNCCOc1ccc(-c2c(C)ncc(C#N)c2Nc2ccc3[nH]ccc3c2C)cc1 [Example 19, 5-(4-{2-[(2-ethoxyethyl)amino]ethoxy}phenyl)-6-methyl-4-[(4-methyl-1H-indol-5-yl)amino]nicotinonitrile]
half-life [1, 3]: > 30 min
IC50 [2]: 46 nM

Cc1c(Nc2c(C#N)cncc2-c2ccc(OCCNCCCn3ccnc3)cc2)ccc2[nH]ccc12
half-life [1, 4]: 22 min

Cc1ncc(C#N)c(Nc2ccc3[nH]ccc3c2C)c1-c1ccc(OCCNCC2CCN(C)CC2)cc1 [Example 23, 6-methyl-4-[(4-methyl-1H-indol-5-yl)amino]-5-[4-(2-{[(1-methylpiperidin-4-yl)methyl]amino}ethoxy)phenyl]nicotinonitrile]
half-life [1, 3]: > 30 min
IC50 [2]: 8 nM

CCN1CCN(CCOc2ccc(-c3c(C)ncc(C#N)c3Nc3ccc4[nH]ccc4c3C)cc2)CC1 [Example 33, 5-{4-[2-(4-ethylpiperazin-1-yl)ethoxy]phenyl}-6-methyl-4-[(4-methyl-1H-indol-5-yl)amino]nicotinonitrile]
half-life [1, 3]: > 30 min
IC50 [2]: 44 nM
